Assay results as given in US5614192A, “T cell receptor peptides as therapeutics for immune-related disease” (Connective Therapeutics, Inc., priority 1993, dated 1997).
Where “and” joins values, the source holds several entries; their conditions need not be identical. Equal values may be shown once. Marks after values point to notes of the source that are not given here. Ends that are not written are not given here.

Key:
[1] = system: lymph node cells and Vβ8-44-54 selected T cell line
[2] = system: LN cells and T cell lines; assay: Proliferation of LN cells and lines from rats protected by transfer of TCR Vβ8 peptide-specific T cells (Table 15); type: cell-based, rat
Description: ^1 Lymph node (LN) cells were collected 20 days after simultaneous
^2 LN cells were tested directly (NL column).
^3 T cell lines were selected from these LN cells by culture with TCR

EAE [3] = assay: Prevention and suppression of EAE by immunization with TCR Vβ8(39-59) (Table 17); type: in vivo, Lewis rats
Gp-S53 = molecular target: T1, Gp-S53 (Cavia porcellus, UniProt P25188); assay: Direct ELISA, antibody reactivity (Example VII); type: binding, guinea pig
T1 construct: Gp-S53 (residues 75-84); made in house; host or cells: chemical solid-phase synthesis

DTH (ear swelling) = assay: DTH to Vβ8.2-39-59 and Vβ8-44-54 in Vβ8-44-54/CFA immunized rats (Table 34); type: in vivo; conditions: rats immunized 14 days with Vβ8-44-54/CFA; net
Description: Transfer of DTH and protection: Delayed type hypersensitivity reactions were measured by the ear swelling assay (Offner et al., J. Neuroimmunol. 9: 147 (1984)) 24 and 48 h after injection i.d. of 20 μg antigen.
Values represent mean ± S.D. of net ear swelling in 6 immunized rats.

[4] = system: Vβ8-44-54 reactive T cell clones; assay: Specificity of Vβ8-44-54 reactive T cell clones, proliferation (Table 37); type: cell-based, rat
Description: Proliferation assays: Proliferation assays were performed in 96-well microtiter plates. 2×10^4 T cells and 10^6 irradiated thymocytes/well were incubated with stimulation medium only, ConA, or antigen at 37C in 7% CO2. The cultures were incubated for 72 h, the last 18 h in the presence of 0.5 Bq ^3 H-Tdr. The cells were harvested onto glass fiber filters and TCR uptake was assessed by liquid scintillation. Mean CPM wre calculated from triplicate wells. The standard deviation from replicate wells varied <10% from the mean values. In some experiments, azide free antibodies to MHC I (OX-18) or MHC II (OX-6, anti-I-A and OX-17, anti-I-E) were added to the cultures to evaluate which MHC molecules were used to restrict the T cell response to TCR Vβ8-44-54 peptide.
Isolation of Vβ8-44-54 reactive T cell clones. To characterize the anti-TCR peptide response on the clonal level, ten clones were isolated and characterized from the initial T cell line. As is shown in Table 37, each of the clones responded strongly to the Vβ8-44-54 peptide with stimulation indices ranging from 10× to 1300×, and weakly or not at all to the Vβ8.2-39-59 or Vβ8.6-39-59 peptides. Three of the four clones challenged with all three of the peptides responded selectively to the consensus Vβ8-44-54 peptide, whereas only one clone (B7) reflected the T cell line pattern of response characterized by response to Vβ8-44-54 >Vβ8.6-39-59 >Vβ8.2-39-59 (Table 37). Loss of viability of the clones precluded individual testing of EAE-protective activity.

TCR Vβ8(39-59) peptide = type: binding, rat
DTH response = assay: Delayed hypersensitivity responses to TCR peptides, ear swelling (Table 26); type: in vivo, Lewis rats
passive EAE = assay: Transfer of EAE to naive rats by GPBP-selected T cell lines from treated rats; type: in vivo
EAE [5] = assay: Prevention of EAE by immunization with TCR peptide (Example VI); type: in vivo, Lewis rats
Source text: EAE is a well-recognized rat model of the human autoimmune disease, multiple sclerosis. […] In this model, the disease is induced by injecting the subject rat with an encephalitogenic form of myelin basic protein, such as, for example, guinea pig basic protein (GPBP) or a synthetic peptide that corresponds to residues 72-89 of GPBP (GPBP(72-89)). Injection of either of these peptides in complete Freund's adjuvant (CFA) induces encephalitogenic T cell clones that utilize preferentially the rat homologs of mouse TCR Vα2 and Vβ8 genes (Chou, Y. K., et al., J. Neurosci. Res. 22:181-187 (1989); Burns, F. R., et al., J. Exp. Med. 169:27-39 (1989)).
^1 EAE was induced by SC challenge with 50 μg GPBP + 400 μg
^2 Rats were injected SC with either: (1) 100 μg of the TCR peptid
^3 Values represent the mean of the maximum severity of EAE. 0, no

TCR Vβ 8(39-59) = type: binding, rat
EAE [6] = conditions: rat, in vivo
Description: Male Lewis rats (225250 g) were challenged SC with 100 μg TCR

Gp-(S87-99) = molecular target: T2, Gp-(S87-99) (Cavia porcellus, UniProt P25188); assay: Direct ELISA, antibody reactivity (Example VII); type: binding, guinea pig
T2 construct: made in house; host or cells: chemical solid-phase synthesis

Gp-S49S = molecular target: T3, Gp-S49S (Cavia porcellus, UniProt P25188); assay: Direct ELISA, antibody reactivity (Example VII); type: binding, guinea pig
T3 construct: Peptide Gp-S49S defines region 69-84 of GPBP and has a C-terminal glycine; made in house; host or cells: chemical solid-phase synthesis

[7] = A. TCR Vβ8 peptide-specific T cell transfer
[8] = peptide day 0, Gp-(S87-99) challenge day 44
[9] = peptide day 0, Gp-S49S challenge day 44
[10] = TCR d. 0, Gp-S49S d. 48, bleed d. 74
[11] = TCR day 0, Gp-S(87-99) d. 44, bleed d. 65, 1:320
[12] = TCR peptide d. 0, Gp-S49S d. 48, bleed d. 74, 1:80

## DMGHGLRLIHYSYDVNSTEKG [TCR Vβ8(39-59), 21-amino acid CDR2 peptide of rat TCR Vβ8]
[1]
  Response of Lymph Node Cells: 38 ± 3
  Response of T Cell Line: 102 ± 10
[2]; [7]
  Proliferation, GPBP Selected Line: 6 cpm × 10^-3
  Proliferation, TCR Peptide Selected Line: 52 cpm × 10^-3
[2]; A. rats given 3 × 10^7 TCR Vβ8 peptide-specific T cells + GPBP/CFA, LN cells day 20
  Proliferation, LN: 90 cpm × 10^-3
[2]; B. Saline + GPBP/CFA
  Proliferation, GPBP Selected Line: 6 cpm × 10^-3
  Proliferation, LN: 8 cpm × 10^-3
EAE [3]; 100 μg peptide/CFA day 0, GPBP (50 μg) challenge day 0
  Clinical Score: 0.7 ± 0.3
EAE [3]; 100 μg peptide/CFA day 0, Gp-S49S (100 μg) challenge day 0
  Clinical Score: 0.5
EAE [3]; [8]
  Clinical Score: 0.0
  Histological Score Br: 0.5 ± 0.6
  Histological Score Sc: 0.8 ± 0.5
EAE [3]; [9]
  Clinical Score: 0.8
  Histological Score Br: 1.8 ± 1.7
  Histological Score Sc: 2.8 ± 1.0
Gp-S53; [10]
  Theoretical Absorbance against Gp-S53 normalized to 1:40: 910 Absorbance (×10^3)
Gp-S53; [11]
  Antisera Reactivity Against Gp-S53: 46 Absorbance (×10^3)
Gp-S53; [12]
  Antisera Reactivity Against Gp-S53: 455 Absorbance (×10^3)
DTH (ear swelling)
  Ear Swelling 24 h: 36 ± 8 mm/100
  Ear Swelling 48 h: 41 ± 9 mm/100
[4]; Clone B3
  Proliferation Response: 1.1 CPM/1000
[4]; Clone B7
  Proliferation Response: 3 CPM/1000
[4]; Clone B11
  Proliferation Response: 0.7 CPM/1000
[4]; Clone D1
  Proliferation Response: 0.8 CPM/1000
[4]; Line
  Proliferation Response: 102 CPM/1000
TCR Vβ8(39-59) peptide
  absorbance of serum on TCR Vβ8(39-59) peptide (A405): 0.63±0.12 units
DTH response; GP-BP/CFA immunized rats, ear test Day 12 (EAE onset)
  48 Hour DTH Response: 11 ± 2
DTH response; Normal or saline/CFA rats, ear test Day 12
  48 Hour DTH Response: 6 ± 3
DTH response; TCR Vβ8 peptide/CFA immunized rats, ear test Day 30
  48 Hour DTH Response: 36 ± 8
DTH response; TCR Vβ814 (so in the source) peptide/CFA immunized rats, ear test Day 30
  48 Hour DTH Response: 6 ± 3
Passive EAE; 10^7 BP/1st line cells from treated rats
  Passive EAE Severity: 0
Passive EAE; 10^7 GPBP activated BP/1st line cells from treated rats i.p. into naive rats
  Passive EAE N: 0/3
Passive EAE; GPBP-selected T cells of rats given TCR peptide ID day 13
  Ability to Transfer EAE: YES
EAE [5]; 100 μg peptide/CFA SC 30 days before challenge with 50 μg GPBP/CFA
  EAE Incidence: 0/10
EAE [5]; Lewis rats
  protection from EAE: prevented completely the induction of EAE
TCR Vβ 8(39-59)
  Antisera Reactivity Against TCR Vβ 8 (39-59): 629 and 621
EAE [6]
  Clinical Signs of EAE: None
Gp-(S87-99); TCR day 0, Gp-S(87-99) d. 44, bleed d. 65
  Theoretical Absorbance against Gp-(S87-99) normalized to 1:40: 784 Absorbance (×10^3)
Gp-(S87-99); [11]
  Antisera Reactivity Against Gp-(S87-99): 348 Absorbance (×10^3)
Gp-(S87-99); [12]
  Antisera Reactivity Against Gp-(S87-99): 11 Absorbance (×10^3)
Gp-(S87-99); preimmunized with TCR peptide vs not treated
  increase of anti-S87-99 responses: > 4 fold
Gp-S49S; [10]
  Theoretical Absorbance against Gp-S49S normalized to 1:40: 1750 Absorbance (×10^3)
Gp-S49S; [11]
  Antisera Reactivity Against Gp-S49S: 38 Absorbance (×10^3)
Gp-S49S; [12]
  Antisera Reactivity Against Gp-S49S: 875 Absorbance (×10^3)
Gp-S49S; preimmunized with TCR peptide vs rats not treated
  elevation of 26 day antibody responses to Gp-S49S and Gp-S53: two to four fold
